Type in all cases: physicochemical
A short description of series [1]: Comparative in vitro dissolution test, 50 rpm paddle speed. The conditions noted are these: for Average % Olanzapine Release (n = 3): USP Apparatus 2, 50 rpm, 0.05% CTAB pH 6.8 USP buffer, 37° C., 1000 mL. Here is the method:
In-vitro dissolution testing was performed to compare the olanzapine release rates for olanzapine pamoate monohydrate and the olanzapine pamoate dihydrate.

Series [2] can be described thus: Solubility in aqueous solution (comparative statement).
A short description of series [3]: In vitro dissolution test at higher paddle speed (100 rpm). The following applies: 100 rpm paddle speed, 0.05% CTAB pH 6.8 USP buffer, 37° C. Here is the method: Another dissolution experiment was performed in order to ensure that the media conditions used to generate the profiles in Table 4 were not solubility limiting. This experiment was performed using the same samples and media conditions but at a higher paddle speed to provide the data listed in Table 5.

Each structure is given as a SMILES string.

The text below walks through data of patent publication US7932249B2, “Olanzapine pamoate dihydrate” (Eli Lilly and Company, priority 2005, dated 2011).

For the compound `Cc1cc2c(s1)Nc1ccccc1N=C2N1CCN(C)CC1.O.O.O=C(O)c1cc2ccccc2c(Cc2c(O)c(C(=O)O)cc3ccccc23)c1O` [Olanzapine Pamoate Dihydrate, 2-methyl-4-(4-methyl-1-piperazinyl)-10H-thieno[2,3-b][1,5]benzodiazepine pamoate dihydrate], the “Average % Olanzapine Release (n = 3)” value in series [1] (0.25 hr) is given as 19%; in series [1] (0.5 hr), 26%; in series [1] (0.75 hr), 30%; in series [1] (1 hr), 33%; in series [1] (2 hrs), 40%; in series [1] (4 hrs), 45%. The “Average % Olanzapine Release (n = 3)” value in series [1] (6 hrs) is reported as 47%; in series [1] (24 hrs) it was 59%. The “Release rate of olanzapine compared with olanzapine pamoate monohydrate” value in series [1] (aqueous conditions of Table 3, 50 rpm) is “substantially lower release rate of olanzapine than the olanzapine pamoate monohydrate”. Besides, the “Solubility in aqueous solution compared with olanzapine pamoate monohydrate” value in series [2] is reported as “substantially less soluble in aqueous solution than olanzapine pamoate monohydrate”. Also, the “% Olanzapine Release (n = 1)” value is given as 95% in series [3] (24 hrs) and 97% in series [3] (36 hrs).
As for `Cc1cc2c(s1)Nc1ccccc1N=C2N1CCN(C)CC1.O=C(O)c1cc2ccccc2c(Cc2c(O)c(C(=O)O)cc3ccccc23)c1O` [Olanzapine Pamoate Monohydrate, 2-methyl-4-(4-methyl-1-piperazinyl)-10H-thieno[2,3-b][1,5]benzodiazepine pamoate, reference compound], the “Average % Olanzapine Release (n = 3)” value in series [1] (0.25 hr) came out at 27%; in series [1] (0.5 hr) it was 39%; in series [1] (0.75 hr) it was 46%; in series [1] (1 hr), 52%; in series [1] (2 hrs) it was 62%; in series [1] (4 hrs), 73%. The results for the “Average % Olanzapine Release (n = 3)” value in series [1] (6 hrs) and in series [1] (24 hrs) were 77% and 83%, respectively. For the same compound, the “% Olanzapine Release (n = 1)” value in series [3] (24 hrs) and in series [3] (36 hrs) was 99% throughout.
